In BindingDB's records for doi:10.1124/jpet.301.3.1097 (Harvard University, 2002):

Legend:
[1] = target: Sodium-dependent dopamine transporter (Rattus norvegicus, UniProt P23977)
[2] = target: Norepinephrine transporter (Rattus norvegicus, UniProt Q9JIA2)
[3] = target: Sodium-dependent serotonin transporter (Rattus norvegicus, UniProt P31652)
Sequence of Sodium-dependent serotonin transporter (P31652 whole entry): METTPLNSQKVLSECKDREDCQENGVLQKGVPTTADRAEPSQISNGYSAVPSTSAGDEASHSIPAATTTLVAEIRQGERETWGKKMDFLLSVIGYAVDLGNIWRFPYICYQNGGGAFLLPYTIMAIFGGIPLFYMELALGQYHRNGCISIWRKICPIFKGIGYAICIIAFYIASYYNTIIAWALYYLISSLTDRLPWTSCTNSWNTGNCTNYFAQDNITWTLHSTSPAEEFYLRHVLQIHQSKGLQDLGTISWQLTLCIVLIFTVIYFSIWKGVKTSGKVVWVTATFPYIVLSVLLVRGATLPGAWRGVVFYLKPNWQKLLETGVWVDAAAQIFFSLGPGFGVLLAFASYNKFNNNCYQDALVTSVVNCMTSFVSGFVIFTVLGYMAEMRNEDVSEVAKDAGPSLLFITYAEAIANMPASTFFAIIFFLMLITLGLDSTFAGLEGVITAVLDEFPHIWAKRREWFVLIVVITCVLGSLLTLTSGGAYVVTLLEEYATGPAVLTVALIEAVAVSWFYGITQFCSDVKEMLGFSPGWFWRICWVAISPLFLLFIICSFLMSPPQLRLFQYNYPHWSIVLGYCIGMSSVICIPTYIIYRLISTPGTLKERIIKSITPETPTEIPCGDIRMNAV

Sequence of Sodium-dependent dopamine transporter (P23977 whole entry): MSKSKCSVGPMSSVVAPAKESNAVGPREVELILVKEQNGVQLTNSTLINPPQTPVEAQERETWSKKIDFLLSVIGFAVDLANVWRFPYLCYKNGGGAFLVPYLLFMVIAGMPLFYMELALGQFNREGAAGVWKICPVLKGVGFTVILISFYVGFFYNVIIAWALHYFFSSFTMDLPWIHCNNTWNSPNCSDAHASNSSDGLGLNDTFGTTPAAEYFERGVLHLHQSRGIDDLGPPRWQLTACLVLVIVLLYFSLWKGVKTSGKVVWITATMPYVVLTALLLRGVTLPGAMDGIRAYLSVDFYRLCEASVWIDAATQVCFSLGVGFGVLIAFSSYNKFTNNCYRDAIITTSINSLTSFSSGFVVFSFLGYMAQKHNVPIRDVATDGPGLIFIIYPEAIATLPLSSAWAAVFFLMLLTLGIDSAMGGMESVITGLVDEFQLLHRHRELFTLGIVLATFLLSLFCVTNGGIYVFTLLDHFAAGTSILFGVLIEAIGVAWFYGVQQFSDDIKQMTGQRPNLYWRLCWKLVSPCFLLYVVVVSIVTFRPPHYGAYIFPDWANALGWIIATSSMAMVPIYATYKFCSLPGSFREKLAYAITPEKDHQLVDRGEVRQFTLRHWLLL

Compound CCn1cc(C(=O)O)c(=O)c2ccc(Cc3ccccc3)nc21 has a Ki [1] of 18.7 nM and a Ki [2] of over 10000 nM.

COCCCC/C(=N\OCCN)c1ccc(C(F)(F)F)cc1 [(1E)-5-methoxy-1-[4-(trifluoromethyl)phenyl]pentan-1-one O-(2-aminoethyl)oxime] showed a Ki [1] of over 10000 nM and a Ki [2] of 5000 nM.

Work on COC(=O)[C@H](c1ccccc1)[C@H]1CCCCN1 [methyl (2R)-phenyl[(2R)-piperidin-2-yl]acetate] yielded a Ki [3] of over 10000 nM and a Ki [2] of 126 nM.

CNCCC(Oc1ccccc1OC)c1ccccc1 (stereo not drawn) [3-(2-methoxyphenoxy)-N-methyl-3-phenylpropan-1-amine] showed a Ki [2] of 0.46 nM.

Work on C[C@H](N)Cc1ccccc1 [beta-aminopropylbenzene] yielded a Ki [2] of 1000 nM.
